{
  "source": "patent US20110159054A1",
  "about": "“NANOPARTICULATE BICALUTAMIDE FORMULATIONS” (Elan Pharma International Ltd., priority 2004, published 2011)",
  "origin": "cited, not measured here",
  "settings": "37° C., practically insoluble",
  "data": [
    {"smiles": "CC(O)(CS(=O)(=O)c1ccc(F)cc1)C(=O)Nc1ccc(C#N)c(C(F)(F)F)c1", "note": "(racemic) [Bicalutamide]", "values": [
      {"measurement": "solubility in water", "value": 5, "unit": "mg per 1000 mL"}
    ]}
  ]
}
